Laboratory results from patent publication US20110319384A1, “Pharmaceutical Compositions” (priority 2005, published 2011).
Read-outs that look alike come from different tables or passages of the source.

Key:
[1] = tested on: patients with treatment resistant or non-remitted GAD
Excerpt: The study population was limited to GAD patients who had not remitted following at least 8 weeks of therapeutic doses of conventional therapy. Conventional therapy includes treatment with one of the following: citalopram, escitalopram, paroxetine, paroxetine CR, venlafaxine XR, sertraline, mirtazapine, fluoxetine, fluvoxamine, or no medication at all. Each patient provided informed consent and was observed on an outpatient basis.
The study population was comprised of patients between the ages of 22 and 61. Forty-eight percent of the study population was male and fifty-two percent was female. […] Patients with other psychiatric disorders, subjective suicidal tendencies, a Montgomery-Asberg Depression Rating Scale (MADRS) score >19, or serious medical conditions were excluded from the study. In addition, pregnant or lactating women and those who took medications prohibited by the study design (e.g., psychoactive substances and oral antipsychotics) within 2 weeks of the original screening were also excluded.
The mean change from baseline to Week 12 in HAM-A total scores was the primary endpoint. […] These additional efficacy assessments were all measured from baseline to Week 12.

[2] = tested on: elderly patients with MDD and CV damage
[3] = tested on: patients with major depression with prominent anxiety symptoms; assay: Example 33: double-blind randomized 8-week study, quetiapine augmentation of SSRIs/SNRIs
Experimental: Patients were also evaluated according to the CGI-S scale for severity, the Global Assessment scale (GAS) and for adverse events (AEs). Patients were evaluated at baseline and at Weeks 1, 2, 4, 6, and 8. Response was defined as a ≧50% reduction in HAM-D or HAM-A total scores from baseline to Week 8. Remission was defined as a HAM-D or HAM-A total score of 7 or lower at Week 8.
In order to be included in the study, patients had to have a DSM-IV diagnosis of major depression (HAM-D score ≧18), a CGI-S score ≧4, and a HAM-A score ≧14. […] Patients who had: (1) a current CNS disorder; (2) significant hepatic, renal or gastrointestinal impairment; (3) acute, unstable or significant and untreated medical conditions; (4) current substance abuse or dependence; or (5) were at risk for suicide were excluded. Pregnant or breast-feeding women were excluded also.

[4] = tested on: patients with residual anxiety and depression despite SSRI treatment
[5] = tested on: patients with treatment-resistant depression; assay: Example 32: 8-week double-blind randomized placebo-controlled study, quetiapine added to SSRI/SNRI
Excerpt: Pregnant or lactating women, or those who were planning on becoming pregnant were not allowed to participate either. Participation in a clinical research study within 90 days of the start of this study also precluded applicants from participating. […] The primary efficacy endpoint for this study was HAM-D score at Week 8. Secondary endpoints included: (1) response (≧50% reduction in HAM-D score) and remission (HAM-D score <7) rates; (2) final Montgomery-Asberg Rating Scale score (MADRS); (3) CGI-S scores; and (4) CGI-I scores. Efficacy was assessed at baseline, then at Weeks 1, 2, 3, 4, 6, and 8. Adverse events (AEs) were also monitored.

[6] = tested on: outpatient adults with SRI-resistant OCD
patients with GAD [7] = conditions: hypothesis to be tested
[8] = tested on: patients with refractory depression (RD); assay: Example 29: Cognitive Behavior Therapy (CBT) plus quetiapine or placebo
patients with GAD [9] = tested on: patients with GAD
[10] = tested on: patients with treatment resistant major depression; assay: Example 24: augmentation of antidepressant therapy, quetiapine versus lithium, 56 days
Experimental: The study compared tolerability and efficacy. […] Lithium was initiated at 600 mg/day, and maintained over Week 1 and 2 and subsequently adjusted to attain a level of 0.8-1.2 mmol/L. Lithium levels were taken weekly.
A total of 20 patients were randomized to 1 of the 2 treatment groups. The study population included men and women aged 18-65 years, with a diagnosis of major depression according to DSM-IV, Hamilton Depression Rating Scale (HAM-D)≧20 and a Clinical Global […] (CGI) score ≧4.
Patients were evaluated at baseline and then on days 7, 14, 28, 42, and 56 using the HAM-D, Montgomery-Asberg […] (MADRS), SAS, and Widlocher Psychomotor Retardation Scale.

[11] = adjunct to conventional therapy
[12] = adjunct to conventional therapy, mean dose 386 mg/day
[13] = add-on to antidepressants, mean dose 300 mg/day
[14] = hypothesis to be tested, compared to paroxetine
[15] = hypothesis to be tested, vs placebo
[16] = add-on to antidepressant, mean doses quetiapine 430 mg/day, lithium 825 mg/day

## OCCOCCN1CCN(C2=Nc3ccccc3Sc3ccccc32)CC1 [quetiapine, 11-[4-[2-(2-hydroxyethoxy)ethyl]-1-piperazinyl]-dibenzo[b,f][1,4]thiazepine]
[1]; [11]
  Dysfunctional Beliefs and Attitudes about Sleep Scale (DBAS) mean at Week 12: about 73
  Dysfunctional Beliefs and Attitudes about Sleep Scale (DBAS) mean at baseline: about 88
  PSQI (sleep quality) baseline mean: about 17
  PSQI (sleep quality) mean in Week 12: about 7
  Penn State Worry Questionnaire (PSWQ) mean at Week 12: about 44
  Penn State Worry Questionnaire (PSWQ) mean at baseline: about 53
[1]; [12]
  mean HAM-A total score after 12 weeks of treatment: about 9
  mean HAM-A total score at baseline: about 30
[1]; baseline to Week 12
  improvement in mean Sheehan Disability Inventory (SDI) scores (work, family, social interactions): about 2
  mean total weight gain and BMI: slight increases
[1]; in vivo
  patients who entered the study reporting sedation as an adverse event: Forty
  serious adverse events: no serious adverse events were reported
  vital signs or laboratory assessments: no clinically significant changes
[1]; of 50 patients eligible for inclusion
  patients who withdrew due to adverse events: seven
[1]; of the patients withdrawn for adverse events
  patients who withdrew because of sedation: five
[2]; add-on to antidepressants
  mean CGI-S score after 6 months: about 5
  mean CGI-S score at baseline: about 6
[2]; [13]
  mean HAM-D score after 6 months: about 15
  mean HAM-D score at baseline: about 27
[2]; in vivo
  discontinuation of the study: No patients discontinued the study
[2]; the only side effects reported
  side effects reported: Sedation and drowsiness
[3]; added to SSRI/SNRI
  mean HAM-A score at baseline: about 23
  mean HAM-D score at baseline: about 23
[3]; added to SSRI/SNRI, 8 weeks
  mean HAM-A score after treatment: about 10
  mean HAM-D score after treatment: about 12
[3]; added to SSRI/SNRI, 8 weeks, placebo about 5
  mean improvement from baseline in HAM-A scores: about 13
[3]; added to SSRI/SNRI, 8 weeks, placebo about 5, mean dose 202 mg/day
  mean improvement from baseline in HAM-D scores: about 11
[3]; in vivo
  CGI-S and GAS assessments: significantly more effective than placebo
  serious AEs: no serious AEs were reported
[3]; no patients in the placebo group
  patients with an increase in bodyweight ≧5 kg: 6 patients
[3]; placebo 17%
  remission rate as assessed by HAM-A (total score of 7 or lower at Week 8): 41%
  remission rate as assessed by HAM-D (total score of 7 or lower at Week 8): 31%
[3]; placebo 28%
  response rate as assessed by HAM-A (≧50% reduction to Week 8): 62%
  response rate as assessed by HAM-D (≧50% reduction to Week 8): 48%
[4]; added to stable SSRI
  mean HAM-A score after 9 weeks of treatment: about 6
  mean HAM-A score at baseline: about 25
  mean HAM-D score after 9 weeks of treatment: about 6
  mean HAM-D score at baseline: about 20
  mean State Anxiety Inventory (SAI) score after 9 weeks of treatment: about 30
  mean State Anxiety Inventory (SAI) score at baseline: about 51
[4]; in vivo
  BARS or SAS scores: no clinically relevant changes
  discontinuation as a result of an adverse event: no patient discontinued therapy
  most common side effects: Drowsiness, mild dry mouth, and constipation
  reduction in scores, HAM-A individual subjects analysis: ≥ 50%
  serious adverse events: No serious adverse events occurred
  weight gain: minimal for all patients but one
[5]; added to SSRI/SNRI, Week 8, placebo about 15
  mean HAM-D score at study end: about 8
[5]; added to SSRI/SNRI, placebo about 24
  mean MADRS score at study end: about 15
[5]; in vivo
  mean weight gain: about 6 kg
  most common side effects: fatigue, dry mouth, and sedation/somnolence
  patients who withdrew from the study due to serious adverse events: No patients
  tolerability: generally well-tolerated
[5]; placebo 3.5
  final mean CGI-I score: 2.5
[5]; placebo 3.8
  final mean CGI-S score: 2.8
[5]; placebo 15%
  patients who achieved remission (HAM-D score <7): 43%
[5]; placebo 27%
  patients who responded to treatment (≧50% reduction in HAM-D score): 67%
[6]; added to SRI
  mean MADRS score at baseline: about 19
  mean MADRS score at trial end: about 15
  mean Y-BOCS score at baseline, the 5 patients that responded: about 30
[6]; added to SRI, 8 weeks
  mean Y-BOCS score after treatment, the 5 patients that responded: about 17
[6]; added to SRI, final mean dosage about 169 mg/day
  patients who responded to treatment (≧25% decrease in Y-BOCS score at endpoint): Five of the 16
[6]; in vivo
  most common adverse events: Sedation and fatigue
  patients who withdrew because of an adverse event: 1 patient
  severity of adverse events: generally mild
Patients with GAD [7]; compared to escitalopram
  Adverse events of nausea or vomiting: lower levels of nausea and
  Incidence of withdrawals due to adverse events: Quetiapine has similar
  Sexual dysfunction: change from randomization in CSFQ total score at Day 57: lower levels of sexual
Patients with GAD [7]; compared to placebo
  Somnolence: severity of AEs, time of first instance, withdrawals due to AE of somnolence: generally mild, occurs early in
Patients with GAD [7]; compared to placebo, Day 4
  Change from randomization in HAM-A total score, HAM-A psychic cluster, HAM-A somatic cluster and CGI-S score at Day 4: anti-anxiety effect by Day 4
Patients with GAD [7]; depressive symptoms in GAD, vs placebo
  Change from randomization in MADRS total score at Day 57: Quetiapine is more effective
Patients with GAD [7]; discontinuation symptoms
  Adverse events related to discontinuation; change in Discontinuation-Emergent Signs and Symptoms total score at Day 64 and Day 71: Quetiapine does not have
Patients with GAD [7]; once daily up to 300 mg/day
  Change from normal to Clinically Important in Physical Examinations; Laboratory values; Vital signs; ECGs: 300 mg/day is safe and well
Patients with GAD [7]; patient satisfaction, vs placebo
  Change from randomization in Q-les-Q Item 15 (Satisfaction with medication) at Day 57: Quetiapine is more effective
Patients with GAD [7]; quality of life, vs placebo
  Change from randomization in Q-les-Q total score and Q-les-Q Item 16 (Overall life satisfaction) at Day 57: Quetiapine is more effective
Patients with GAD [7]; response rate vs placebo, Day 4
  HAM-A Response (decrease from randomization total score of = 50%) at Day 4: Quetiapine has a greater
Patients with GAD [7]; response rate vs placebo, Day 57
  HAM-A Response (decrease from randomization total score of = 50%) at Day 57: Quetiapine has a greater
Patients with GAD [7]; vs placebo
  Adverse events of nausea or vomiting: placebo levels of nausea and
  Adverse events related to EPS (including akathisia); change in SAS and BARS scores at Day 57: placebo levels of EPS
  HAM-A Remission (HAM-A total score = 7) at Day 57: Quetiapine is better than
  Sexual dysfunction: change from randomization in CSFQ total score at Day 57: placebo levels of sexual
Patients with GAD [7]; vs placebo, across anxiety symptoms
  Change from randomization in CGI-S score, CGI-I (much or very much improved), HAM-A psychic and somatic clusters at Day 57: Quetiapine is more effective
[8]; 50% drop-out rate in the CBT+placebo arm
  lack of response drop-outs: no lack of response drop-outs
[8]; CBT 12 weekly sessions, quetiapine up to 200 mg twice a day, no significant reductions with CBT+placebo
  all primary efficacy measures (MADRS, HAM-D): significantly reduced
[8]; in vivo
  most common side effect: Somnolence
  serious adverse events: No serious adverse events were observed
  study survivability (at least 4 or more CBT sessions prior to withdrawal): increased study survivability
  tolerability: generally well-tolerated
Patients with GAD [9]; claim to be addressed, primary outcome, vs placebo
  Change from randomization in the Hamilton Anxiety Scale (HAM-A) total score at Day 57: more effective
Patients with GAD [9]; [14]
  Adverse events of nausea or vomiting: lower levels of nausea and
  Incidence of withdrawals due to adverse events: Quetiapine has similar
  Sexual dysfunction: change from randomization in CSFQ total score at Day 57: lower levels of sexual
Patients with GAD [9]; hypothesis to be tested, compared to placebo
  Somnolence: severity of AEs, time of first instance, withdrawals due to AE of somnolence: generally mild, occurs early in
Patients with GAD [9]; hypothesis to be tested, compared to placebo, Day 4
  Change from randomization in HAM-A total score, HAM-A psychic cluster, HAM-A somatic cluster and CGI-S score at Day 4: anti-anxiety effect by Day 4
Patients with GAD [9]; hypothesis to be tested, depressive symptoms in GAD, vs placebo
  Change from randomization in MADRS total score at Day 57: Quetiapine is more effective
Patients with GAD [9]; hypothesis to be tested, discontinuation symptoms
  Adverse events related to discontinuation; change in Discontinuation-Emergent Signs and Symptoms total score at Day 64 and Day 71: Quetiapine does not have
Patients with GAD [9]; hypothesis to be tested, once daily up to 150 mg/day
  Change from normal to Clinically Important in Physical Examinations; Laboratory values; Vital signs; ECGs: 150 mg/day is safe and well
Patients with GAD [9]; hypothesis to be tested, patient satisfaction, vs placebo
  Change from randomization in Q-les-Q Item 15 (Satisfaction with medication) at Day 57: Quetiapine is more effective
Patients with GAD [9]; hypothesis to be tested, quality of life, vs placebo
  Change from randomization in Q-les-Q total score and Q-les-Q Item 16 (Overall life satisfaction) at Day 57: Quetiapine is more effective
Patients with GAD [9]; hypothesis to be tested, response rate vs placebo, Day 4
  HAM-A Response (decrease from randomization total score of ≧50%) at Day 4: Quetiapine has a greater
Patients with GAD [9]; hypothesis to be tested, response rate vs placebo, Day 57
  HAM-A Response (decrease from randomization total score of ≧50%) at Day 57: Quetiapine has a greater
Patients with GAD [9]; hypothesis to be tested, sleep quality, vs placebo
  Change from randomization in PSQI score and MADRS sleep disturbance factor (Item 4) at Day 57: Quetiapine is superior to
Patients with GAD [9]; hypothesis to be tested, versus paroxetine
  Change from randomization in HAM-A total score, CGI Global Improvement, HAM-A psychic and somatic clusters at Day 57: Quetiapine is at least as
Patients with GAD [9]; [15]
  Adverse events of nausea or vomiting: placebo levels of nausea and
  Adverse events related to EPS (including akathisia); change in SAS and BARS scores at Day 57: placebo levels of EPS
  HAM-A Remission (HAM-A total score ≦7) at Day 57: Quetiapine is better than
  Sexual dysfunction: change from randomization in CSFQ total score at Day 57: placebo levels of sexual
Patients with GAD [9]; hypothesis to be tested, vs placebo, across anxiety symptoms
  Change from randomization in CGI-S score, CGI-I (much or very much improved), HAM-A psychic and somatic clusters at Day 57: Quetiapine is more effective
[10]; add-on to antidepressant
  Widlocher Psychomotor Retardation Scale mean baseline score: about 30
  Widlocher Psychomotor Retardation Scale mean score after treatment: about 7
  mean MADRS score after Day 7 up to Day 56 (end value): about 8
  mean MADRS score, start value 'After Day 7': about 38
[10]; [16]
  mean HAM-D score at Day 56: about 5
  mean HAM-D score, start value of 'From Day 7 to 56': about 26
[10]; after 56 days
  patients in remission (HAM-D): about 80%
  patients who responded (MADRS): Eighty
  patients who responded to treatment (HAM-D): about 80%
[10]; at 56 days
  patients who achieved remission (MADRS): Eighty
[10]; in vivo
  SAS scale scores versus baseline: decreased scores from baseline
